Assay results: the NIST ThermoML archive (doi:10.1016/j.jct.2016.10.031)
Numbers after ± are expanded uncertainties.

Assay: Molar enthalpy of transition or fusion
Details: Crystal; Adiabatic calorimetry

- Molar enthalpy of transition or fusion: 4.802 ± 0.0406 kcal/mol
SMILES: CC(C)(C)c1ccc(Oc2ccc([N+](=O)[O-])cc2)cc1 [1-(tert-butyl)-4-(4-nitrophenoxy)benzene]
